The subject of data set [1] is Phytophthora infestans. Format: in vivo. The note with it: rating without asterisk; 100 = 100% disease control, 0 = no disease control relative to the controls.
The subject of data set [2] is Septoria nodorum. Nature of the data set: Test E: Septoria glume blotch, preventive spray on wheat seedlings, visual disease rating. It counts as in vivo. From the text: (§1) A dash (-) indicates no test results.
In data set [3] the test system is Septoria tritici. The data set is described as follows: Test F: wheat leaf blotch, preventive spray on wheat seedlings, visual disease rating. Format: in vivo.
Description: as §1

Data set [4] has as its system cucumber seedlings. Nature of the data set: Test I: phytotoxicity to the cucumber seedlings of the test units. It counts as in vivo. The note with it: 250 ppm active ingredient applied to soil, 7 days. The protocol: Control of the southern root-knot nematode (Meloidogyne incognita) through contact and/or systemic means was evaluated in test units consisting of small open containers filled with a sandy soil mixture and cucumber seedlings.
Test compounds were formulated using a solution containing 50% acetone and 50% water. Test compounds were applied directly to the soil of the test units at concentrations of 250 or 50 ppm active ingredient. Each test was replicated 3 times. After treatment, the test units were allowed to dry for 1 h, after which time about 250 second-stage juvenile (J2) larvae were pipetted into the soil. The test units were held at 27° C. and watered as needed for 7 days.
Nematocidal efficacy was determined by the amount of root gall formation observed when compared to an untreated control. No gall formation was indicative of 100% nematode control. Gall formation equivalent to that found in the untreated control was indicative of 0% control. No nematode control rating was given to compounds showing significant phytotoxicity.

Data set [5] relates to Puccinia recondita f. sp. tritici. Nature of the data set: Test G: wheat leaf rust, preventive spray on wheat seedlings, visual disease rating.
Description: (§2) General protocol for preparing test suspensions for Tests A-H: the test compounds were first dissolved in acetone in an amount equal to 3% of the final volume and then suspended at the desired concentration (in ppm) in acetone and purified water (50/50 mix by volume) containing 250 ppm of the surfactant Trem® 014 (polyhydric alcohol esters). The resulting test suspensions were then used in Tests A-H. Spraying a 200 ppm test suspension to the point of run-off on the test plants was the equivalent of a rate of 600 g/ha. Unless otherwise indicated, the rating values indicate a 200 ppm test suspension was used.
The test suspension was sprayed to the point of run-off on wheat seedlings. The following day the seedlings were inoculated with a spore suspension of Puccinia recondita f. sp. tritici (the causal agent of wheat leaf rust) and incubated in a saturated atmosphere at 20° C. for 24 h, and then moved to a growth chamber at 20° C. for 6 days, after which time visual disease ratings were made.
(§3) An asterisk “*” next to the rating value indicates a 40 ppm test suspension was used, a double asterisk “**” next to the rating value indicates a 130 ppm test suspension was used.
Data set [6] relates to Botrytis cinerea. Nature of the data set: Test B: tomato botrytis, preventive spray on tomato seedlings, visual disease rating. The note with it: for Test B rating (disease control): rating without asterisk, 100 = 100% disease control, 0 = no disease control relative to the controls.
Description: as §2
The test suspension was sprayed to the point of run-off on tomato seedlings. The following day the seedlings were inoculated with a spore suspension of Botrytis cinerea (the causal agent of tomato botrytis) and incubated in saturated atmosphere at 20° C. for 48 h, and then moved to a growth chamber at 24-27° C. for 2-3 days, after which time visual disease ratings were made.
A dash (-) indicates no test results. An asterisk “*” next to the rating value indicates a 40 ppm test suspension was used, a double asterisk “**” next to the rating value indicates a 130 ppm test suspension was used.
In data set [7] the test system is Blumeria graminis f. sp. tritici. The data set is described as follows: Test H: wheat powdery mildew, preventive spray on wheat seedlings, visual disease rating.
Description: General protocol for preparing test suspensions for Tests A-H: the test compounds were first dissolved in acetone in an amount equal to 3% of the final volume and then suspended at the desired concentration (in ppm) in acetone and purified water (50/50 mix by volume) containing 250 ppm of the surfactant Trem® 014 (polyhydric alcohol esters). The resulting test suspensions were then used in Tests A-H. Spraying a 200 ppm test suspension to the point of run-off on the test plants was the equivalent of a rate of 600 g/ha. Unless otherwise indicated, the rating values indicate a 200 ppm test suspension was used. (In Table A, an asterisk “*” next to the rating value indicates a 40 ppm test suspension was used; a double asterisk “**” next to the rating value indicates a 130 ppm.)
The test suspension was sprayed to the point of run-off on wheat seedlings. The following day the seedlings were inoculated with a spore dust of Blumeria graminis f. sp. tritici (also known as Erysiphe graminis f. sp. tritici, the causal agent of wheat powdery mildew) and incubated in a growth chamber at 20° C. for 8 days, after which time visual disease ratings were made.
as §3
The subject of data set [8] is Alternaria solani. The data set is described as follows: Test C: tomato early blight, preventive spray on tomato seedlings, visual disease rating. The note with it: rating without asterisk; 100 = 100% disease control, 0 = no disease control relative to the controls. Format: in vivo.
Description: as §1

Data set [9] concerns Plasmopara viticola. Nature of the data set: Test A: grape downy mildew, curative spray on grape seedlings, visual disease rating. It counts as in vivo. The note with it: rating without asterisk; 100 = 100% disease control, 0 = no disease control relative to the controls. From the text:
Upon removal, visual disease ratings were made. […] A dash (-) indicates no test results.

Where [10] appears, read: rating without asterisk, 100 = 100% disease control, 0 = no disease control relative to the controls.

The record followed here is US8815772B2, “Fungicidal heterocyclic carboxamides” (E I du Pont de Nemours and Company, priority 2012, dated 2014).

Marks after values point to notes of the source that are not given here.

On to `O=C(NCCc1ccc(-n2ccc(C(F)(F)F)n2)cc1Cl)c1ncccc1C(F)(F)F` [Compound 40, N-[2-[2-chloro-4-[3-(trifluoromethyl)-1H-pyrazol-1-yl]phenyl]ethyl]-3-(trifluoromethyl)-2-pyridinecarboxamide], for which, in data set [1], the “Test D rating (disease control)” value stood at 0%. In addition, in data set [2] (setting [10]), the “Test E rating (disease control)” value is reported as 100%. The “Test F rating (disease control)” value in [3] (setting [10]) is listed as 100%. Further, in data set [4], the phytotoxicity entry was “no significant phytotoxicity”. Further, the “Test G rating (disease control)” value in data set [5] (setting [10]) was found to be 0%. The “Test B rating (disease control)” value in data set [6] is given as 66%. The “Test H rating (disease control)” value in [7] (setting [10]) stood at 100%.
With `O=C(NCC(F)(F)c1ccc(-n2ccc(C(F)(F)F)n2)cc1Cl)c1ncccc1C(F)(F)F` [Compound 150, N-[2-[2-chloro-4-[3-(trifluoromethyl)-1H-pyrazol-1-yl]phenyl]-2,2-difluoroethyl]-3-(trifluoromethyl)-2-pyridinecarboxamide], the “Test E rating (disease control)” value in [2] (* 40 ppm test suspension) is 100* %. Further, the “Test F rating (disease control)” value in data set [3] (* 40 ppm test suspension) is on record as 100* %. Also, the phytotoxicity result in [4] is recorded as “no significant phytotoxicity”. The “Test G rating (disease control)” value in [5] (* 40 ppm test suspension) is 0* %. The “Test H rating (disease control)” value in [7] (* 40 ppm test suspension) is on record as 100* %.
For the compound `O=C(NCCc1ccc(-n2ccc(C(F)(F)F)n2)cc1)c1ccccc1C(F)(F)F` [Compound 5, 2-(trifluoromethyl)-N-[2-[4-[3-(trifluoromethyl)-1H-pyrazol-1-yl]phenyl]ethyl]benzamide], the “Test D rating (disease control)” value in [1] is 0%. Also, in [2] (setting [10]), the “Test E rating (disease control)” value came to 0%. Moreover, the “Test F rating (disease control)” value in data set [3] (setting [10]) is listed as 100%. Moreover, the “Test C rating (disease control)” value in data set [8] came out at 83%. Further, the phytotoxicity result in data set [4] is “no significant phytotoxicity”. In addition, the “Test G rating (disease control)” value in data set [5] (setting [10]) is recorded as 0%. For the same compound, the “Test B rating (disease control)” value in data set [6] turned out to be 17%. The “Test H rating (disease control)” value in [7] (setting [10]) was determined as 96%.
Regarding “3-difluoromethyl)-N-[3′,5′-difluoro-4′-(1-methyl-1H-pyrazol-3-yl)[1,1′-biphenyl]-2-yl]-1-methyl-1H-pyrazole [Compound 232]”, in data set [5] (no asterisk: standard test suspension, wheat leaf rust), the “Test G rating (100 = 100% disease control, 0 = no disease control relative to the controls)” value turned out to be 100%. Further, in data set [6] (no asterisk: standard test suspension, tomato botrytis), the “Test B rating (100 = 100% disease control, 0 = no disease control relative to the controls)” value is listed as 81%. For the same compound, the “Test H rating (100 = 100% disease control, 0 = no disease control relative to the controls)” value in data set [7] (no asterisk: standard test suspension, wheat powdery mildew) is 97%.
For `CC(Cc1ccc(-n2ccc(C(F)(F)F)n2)cc1Cl)NC(=O)c1nccnc1Cl` (stereo not drawn) [Compound 1], the “Test D rating (disease control)” value in data set [1] came out at 0%. Also, the “Test E rating (disease control)” value in data set [2] (setting [10]) is on record as 100%. For the same compound, in [3] (setting [10]), the “Test F rating (disease control)” value was 100%. Further, the “Test G rating (disease control)” value in data set [5] (setting [10]) is recorded as 54%. For the same compound, the “Test B rating (disease control)” value in [6] is on record as 99%. Further, the “Test H rating (disease control)” value in [7] (setting [10]) worked out at 100%.
As for `O=C(Nc1ccccc1-c1cc(F)c(-n2ccc(C(F)(F)F)n2)c(F)c1)c1cccnc1Cl` [Compound 170, 2-chloro-N-[3′,5′-difluoro-4′-[3-(trifluoromethyl)-1H-pyrazol-1-yl][1,1′-biphenyl]-2-yl]-3-pyridinecarboxamide], the “Test D rating (disease control)” value in [1] is recorded as 0%. For the same compound, the “Test E rating (disease control)” value in data set [2] (setting [10]) amounted to 0%. Further, the “Test A rating (disease control)” value in data set [9] is 0%. Moreover, the “Test F rating (disease control)” value in [3] (setting [10]) was 100%. Further, in data set [5] (setting [10]), the “Test G rating (disease control)” value is reported as 100%. Further, in data set [6], the “Test B rating (disease control)” value is 0%. The “Test H rating (disease control)” value in data set [7] (setting [10]) was 100%.
For `O=C(NCCc1ncc(-n2ccc(C(F)(F)F)n2)cc1Cl)c1ccccc1C(F)(F)F` [Compound 85, N-[2-[3-chloro-5-[(3-trifluoromethyl)-1H-pyrazol-1-yl]-2-pyridinyl]ethyl]-2-(trifluoromethyl)benzamide], the “Test D rating (disease control)” value in data set [1] came out at 0%. The “Test E rating (disease control)” value in data set [2] (setting [10]) was 100%. Moreover, in [9], the “Test A rating (disease control)” value came out at 0%. Also, in data set [3] (setting [10]), the “Test F rating (disease control)” value is given as 100%. The “Test G rating (disease control)” value in [5] (setting [10]) stood at 0%. The “Test B rating (disease control)” value in [6] was found to be 95%. For the same compound, the “Test H rating (disease control)” value in [7] (setting [10]) worked out at 100%.
`O=C(Nc1ccccc1-c1cc(F)c(-n2ccc(C(F)(F)F)n2)c(F)c1)c1ncccc1C(F)(F)F` [Compound 172, N-[3′,5′-difluoro-4′-[3-(trifluoromethyl)-1H-pyrazol-yl][1,1′-biphenyl]-2-yl]-3-(trifluoromethyl)-2-pyridinecarboxamide]: the “Test D rating (disease control)” value in data set [1] amounted to 0%. Moreover, in data set [2] (setting [10]), the “Test E rating (disease control)” value turned out to be 100%. Besides, in data set [9], the “Test A rating (disease control)” value worked out at 0%. Besides, in data set [3] (setting [10]), the “Test F rating (disease control)” value stood at 100%. In [5] (setting [10]), the “Test G rating (disease control)” value is given as 100%. In data set [6], the “Test B rating (disease control)” value was 65%. Besides, the “Test H rating (disease control)” value in data set [7] (setting [10]) turned out to be 100%.
With `Cn1cc(C(=O)Nc2ccccc2-c2cc(F)c(-n3ccc(C(F)(F)F)n3)c(F)c2)c(C(F)F)n1` [Compound 173, 3-(difluoromethyl)-N-[3′,5′-difluoro-4′-[3-(trifluoromethyl)-1H-pyrazol-1-yl][1,1′-biphenyl]-2-yl]-1-methyl-1H-pyrazole-4-carboxamide], the “Test D rating (disease control)” value in [1] is 0%. Moreover, the “Test E rating (disease control)” value in [2] (setting [10]) is reported as 100%. The “Test A rating (disease control)” value in data set [9] stood at 0%. In addition, in [3] (setting [10]), the “Test F rating (disease control)” value is 100%. In addition, the “Test G rating (disease control)” value in [5] (setting [10]) worked out at 100%. Further, the “Test B rating (disease control)” value in [6] turned out to be 72%. Also, the “Test H rating (disease control)” value in data set [7] (setting [10]) turned out to be 100%.
